# Entries after “also recorded” stand apart in the source; their conditions may differ. Square brackets hold non-standard residues; d marks the D form. Ends that are not written are not given here. Cit = NC(=O)NCCC[C@H](N)C(=O)O
# How the values were obtained:
# PS1220 = molecular target: T1, PS1220 (Kluyveromyces lactis, UniProt O60014, E169T/E174T/I162E/N105S/N176F/R116K/S153T/V146L); assay: Dynamic single-molecule sequencing, recognition by PS1220; format: binding; details: vimentin peptide fragments
# T1 construct: PS1220; 566
# T1 sequence (O60014 with tags, fused parts or gaps N105S/R116K/V146L/S153T/I162E/E169T/E174T/N176F): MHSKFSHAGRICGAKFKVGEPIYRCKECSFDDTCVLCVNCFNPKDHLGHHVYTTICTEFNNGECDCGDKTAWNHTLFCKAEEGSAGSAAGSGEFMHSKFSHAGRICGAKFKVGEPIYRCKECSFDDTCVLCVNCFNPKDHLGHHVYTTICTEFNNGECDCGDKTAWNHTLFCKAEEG
# Procedure: (§1) Sequencing reactions using the recognizers PS610 (FYW), PS1220 (R), and PS1223 (LIV) were performed separately for the QP706 and QP1073 peptide fragments. Each recognizer was labeled with a unique dye and/or unique number of dyes. A scatter plot of bin ratio v. pulse duration is shown for the QP706 peptide fragment in FIG. 18A and for the QP1073 peptide fragment in FIG. 18B. In the plot of FIG. 18A, three clusters corresponding to FLE, LEQ, and RFL segments are visible. […] In the plot of FIG. 18B, two clusters corresponding to FLE and LEQ segments are visible, but there is no cluster corresponding to RFL.
# Results from additional sequencing reactions performed using the recognizers PS610 (FYW), PS1220 (R), and PS1223 (LIV) and the QP706 and QP1073 peptide fragments are shown in FIGS. 19A-19D and 20A-20D. Traces from the QP706 reactions are shown in FIGS. 19A-19B, and corresponding scatter plots of intensity v. bin ratio are shown in FIGS. 19C-19D. […] Traces from the QP1073 reactions are shown in FIGS. 20A-20B, and the corresponding scatter plots of intensity v. bin ratio are shown in FIGS. 20C-20D.
# PS610 = assay: Dynamic single-molecule sequencing, recognition by PS610; format: binding, A. tumefaciens; details: for RS mean PD, recognition of N-terminal phenylalanine: lysine or acetylated lysine downstream
# Procedure: The semiconductor chip was placed in the sequencing device and a chip check was performed to test electronic circuit function and to optimize laser coupling alignment. The chip was then removed from the device socket and the chip was washed twice with 50 μL of 70% isopropanol, followed by four washes with 30 μL of wash buffer (50 mM MOPS pH 8.0, 60 mM potassium acetate, 50 mM glucose, 20 mM magnesium acetate, and surfactant mix) through a flow cell attached to the chip. A second chip check was then performed. […] The chip was then washed six times with wash buffer, followed by addition of an imaging solution (wash buffer with 5 mM Trolox and an oxygen scavenging system). The laser was unblocked and the occupancy percentage (target 10-30%, Poisson distributed) was recorded by acquiring a photobleaching signal from a fluorophore attached to the peptide complex during 5 min of laser illumination. […] The laser was then blocked briefly and aminopeptidases were added to the sequencing reaction via the flow cell and mixed thoroughly (final concentration 2-8 μM PhTET2 and/or 20-80 μM PhTET3, as indicated according to the experiment). The laser was then unblocked, and data was recorded for 10 hours. For all runs, 30 μL of mineral oil was added to fluid reservoirs at each port of the flow cell to prevent evaporation during the run.
# (§2) The measured signal on-chip comprises various noise components, the most dominant one being due to fluorescent emissions from diffusing recognizers in the reaction chamber. The pulse caller algorithm for a given reaction chamber starts by estimating the statistical properties of this background noise component. Once an estimate within certain error bounds has been established, the algorithm works in an online fashion observing new frames of data as they are generated. At each point in time, the algorithm maintains state indicating whether the signal is due to the background component only or a pulse from a recognizer-NAA interaction is being observed. The state transition from background to pulse is triggered using an edge detection test where the shift in signal is expected to be significant with respect to the background component's statistical distribution. The state transition from pulse to background is triggered when a small window of the most recent frames of the signal appears to conform to the background component's distribution again. The algorithm maintains an updated model of the background component as new background frames are observed. This provides robustness against drift in the signal intensity together with a feedback control loop that maintains a stable optical coupling of the laser into the chip based on any such detected drift. As detected pulses can be due to true recognizer-to-dipeptide interaction events as well as other occasional transient noise spikes, a downstream filter layer is employed to test the significance of pulse events based on their duration, intensity, and noise patterns within the context of the full timeline of the run and the entire dataset of reaction chambers.
# Initial regions are determined by performing a sliding window calculation of pulse rate along the time dimension of a series of pulses. Regions with a mean pulse rate >1 pulse/min are then subdivided according to a greedy bisection approach. Here, the pulses on the left and right of each potential split are assessed for statistically significant deviation in any of four separate pulse properties—intensity, bin ratio, pulse duration, and interpulse duration—using a Mann-Whitney U Test. To define RSs, the split point with the lowest p-value for any of the four properties is used to sub-divide the region and the process continues until no regions remain with a candidate split point with p-value <10^−5 in any comparison. In this manner, transitions from one RS to the next in a region of continuous pulsing are determined a priori on the basis of changes in fluorescence properties of pulsing kinetics.
# PS1165 = molecular target: T2, PS1165; assay: Dynamic single-molecule sequencing, recognition by PS1165; format: binding; details: lysine or acetylated lysine downstream
# T2 construct: PS1165; 511
# T2 sequence (Q13490 with tags, fused parts or gaps): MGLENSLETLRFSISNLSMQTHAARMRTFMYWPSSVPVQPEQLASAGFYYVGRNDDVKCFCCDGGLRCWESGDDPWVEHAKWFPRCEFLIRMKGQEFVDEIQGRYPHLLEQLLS
# Procedure: Sequencing reactions using the recognizers PS691 (R), PS610 (FYW), PS961 (LIV), and PS1165 (A) were performed separately for the peptides RLYFKAYPDDD (SEQ ID NO: 825) and RLK{acetyl}FIAYPDDD (SEQ ID NO: 826) (where K{acetyl} is an acetylated lysine). Recognition of the N-terminal phenylalanine and alanine residues preceding lysine or acetyl-lysine by PS610 and PS1165, respectively, was observed, with distinct pulse durations depending on whether the peptide contained lysine (F=1.4 s, A=1.3 s; FIG. 16A) or acetylated lysine (F=1.8 s, A=2.2 s; FIG. 16B). Recognition of N-terminal phenylalanine occurred with RS mean PD of 1.4 s for FAK and 1.8 s for FAK{acetyl }. Recognition of N-terminal alanine occurred with RS mean PD of 1.3 s for AK and 2.2 s for AK{acetyl}.
# PS691 = details: tyrosine or phosphotyrosine at position 3
# Procedure: The semiconductor chip was placed in the sequencing device and a chip check was performed to test electronic circuit function and to optimize laser coupling alignment. The chip was then removed from the device socket and the chip was washed twice with 50 μL of 70% isopropanol, followed by four washes with 30 μL of wash buffer (50 mM MOPS pH 8.0, 60 mM potassium acetate, 50 mM glucose, 20 mM magnesium acetate, and surfactant mix) through a flow cell attached to the chip. A second chip check was then performed. […] The laser was unblocked and the occupancy percentage (target 10-30%, Poisson distributed) was recorded by acquiring a photobleaching signal from a fluorophore attached to the peptide complex during 5 min of laser illumination. For NAA recognition-only assays, after peptide loading, labeled recognizer was added to a final concentration of 50 nM PS610, 100 nM PS691, or 250 nM PS961 (as indicated according to the experiment), and data was recorded for 10 hours. […] Data was recorded for 15 min. […]
# The measured signal on-chip comprises various noise components, the most dominant one being due to fluorescent emissions from diffusing recognizers in the reaction chamber. […] This provides robustness against drift in the signal intensity together with a feedback control loop that maintains a stable optical coupling of the laser into the chip based on any such detected drift. […]
# PS961 = assay: Dynamic single-molecule sequencing, recognition by PS961; format: binding, Planctomycetes; details: for RS mean PD, recognition of N-terminal leucine: tyrosine or phosphotyrosine at position 2
# PS961, sequence (as listed by the source): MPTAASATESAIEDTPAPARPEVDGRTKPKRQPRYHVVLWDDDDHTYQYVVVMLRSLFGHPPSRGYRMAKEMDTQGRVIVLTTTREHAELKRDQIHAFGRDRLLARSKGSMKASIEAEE
# Procedure: The semiconductor chip was placed in the sequencing device and a chip check was performed to test electronic circuit function and to optimize laser coupling alignment. The chip was then removed from the device socket and the chip was washed twice with 50 μL of 70% isopropanol, followed by four washes with 30 μL of wash buffer (50 mM MOPS pH 8.0, 60 mM potassium acetate, 50 mM glucose, 20 mM magnesium acetate, and surfactant mix) through a flow cell attached to the chip. A second chip check was then performed. The laser was then blocked via an integrated software-controlled shutter, peptide complex was added to a final concentration of 1-10 nM and mixed thoroughly, and the chip was incubated for 15 min. The chip was then washed six times with wash buffer, followed by addition of an imaging solution (wash buffer with 5 mM Trolox and an oxygen scavenging system). The laser was unblocked and the occupancy percentage (target 10-30%, Poisson distributed) was recorded by acquiring a photobleaching signal from a fluorophore attached to the peptide complex during 5 min of laser illumination. For NAA recognition-only assays, after peptide loading, labeled recognizer was added to a final concentration of 50 nM PS610, 100 nM PS691, or 250 nM PS961 (as indicated according to the experiment), and data was recorded for 10 hours. For dynamic sequencing assays, after peptide loading, a mixture of labeled recognizers was added to obtain final concentrations of 50 nM PS610, 100 nM PS691, and 250 nM PS961. Data was recorded for 15 min. The laser was then blocked briefly and aminopeptidases were added to the sequencing reaction via the flow cell and mixed thoroughly (final concentration 2-8 μM PhTET2 and/or 20-80 μM PhTET3, as indicated according to the experiment). The laser was then unblocked, and data was recorded for 10 hours. For all runs, 30 μL of mineral oil was added to fluid reservoirs at each port of the flow cell to prevent evaporation during the run.
# as §2
# Initial regions are determined by performing a sliding window calculation of pulse rate along the time dimension of a series of pulses. Regions with a mean pulse rate >1 pulse/min are then subdivided according to a greedy bisection approach.
# PS1223 = assay: Dynamic single-molecule sequencing, recognition by PS1223; format: binding
# PS1223, sequence (as listed by the source): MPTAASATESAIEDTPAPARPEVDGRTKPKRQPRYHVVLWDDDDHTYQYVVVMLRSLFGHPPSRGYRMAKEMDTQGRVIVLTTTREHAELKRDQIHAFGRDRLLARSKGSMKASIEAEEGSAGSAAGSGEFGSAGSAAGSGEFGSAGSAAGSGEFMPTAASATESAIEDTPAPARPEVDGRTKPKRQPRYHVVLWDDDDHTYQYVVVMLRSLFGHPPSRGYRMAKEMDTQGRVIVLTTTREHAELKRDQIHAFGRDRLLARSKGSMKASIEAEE
# Procedure: as §1
# In this example, sequencing reactions were conducted for 4 pairs of unmodified and citrullinated peptides: QP1028 & QP1029, QP1030 & QP1031, QP1032 & QP1033, and QP707 & QP789. […] For the QP1028 & QP1029 and QP1030 & QP1031 pairs, sequencing reactions were conducted using the PS610 (FYW) recognizer. For the QP1032 & QP1033 and QP707 & QP789 pairs, sequencing reactions were conducted using the PS1223 (LIV) recognizer.
# PS621 = molecular target: T3, PS621 (Kluyveromyces lactis, UniProt O60014, E174T/N105S/N176F/R116K/S153T/V146T); assay: Dynamic single-molecule sequencing, recognition by PS621; format: binding; details: unmodified arginine peptide, average of 10 sequencing reactions
# T3 construct: PS621; […]
# T3 sequence (O60014 other isoform, or with tags, fused parts or gaps N105S/R116K/V146T/S153T/E174T/N176F): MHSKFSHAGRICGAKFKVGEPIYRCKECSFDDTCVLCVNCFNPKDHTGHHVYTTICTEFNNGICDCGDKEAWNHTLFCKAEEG
# Text: PTM detection involved isolating peptides and subjecting them to a real-time single-molecule protein sequencing reaction. Proteins were first digested into peptide fragments and conjugated C-terminally to macromolecular linkers. The peptide complexes were immobilized at the bottom of nanoscale wells on a semiconductor chip, resulting in single peptide molecules with exposed N-termini ready for sequencing. During the sequencing reaction, the surface-immobilized peptides were exposed to a solution containing dye-labeled NAA recognizers that bound on and off to their cognate NAAs with characteristic kinetic properties. Aminopeptidases in solution sequentially removed individual NAAs to expose subsequent amino acids for recognition. Fluorescence lifetime, intensity, and kinetic data were collected in real time and analyzed to determine amino acid sequence and PTM content.
# The trace-level output included distinct pulsing regions called recognition segments (RSs); each RS corresponded to a period of time between aminopeptidase cleavage events during which an NAA recognizer bound on and off to its exposed target NAA. Chemical modifications to a target NAA or to a nearby downstream amino acid can modulate recognizer affinity, resulting in a characteristic change in the average pulse duration (PD) during an RS relative to an unmodified peptide. These modifications can also influence the rate of aminopeptidase cleavage of an NAA, resulting in a characteristic change in average duration of the corresponding RS.
# Synthetic peptides corresponding to residues 69 to 76 of P38MAPKa were generated in three versions containing either arginine, ADMA, or SDMA at position 2: YRELRLLK (SEQ ID NO: 834), YRADMAELRLLK (SEQ ID NO: 835), and YRSDMAELRLLK (SEQ ID NO: 836). Each peptide was sequenced using three recognizers—PS610 (F, Y, W), PS961 (L, I, V), and PS621 (R)—and data were analyzed to identify RSs, determine the mean PD of each RS, and characterize the kinetic signature of each peptide.
# In this example, sequencing reactions were performed using PS621 (R), PS610 (FYW), and PS961 (LIV) recognizers for 9 pairs of peptides. Each pair comprised one peptide comprising an unmodified arginine residue followed by a non-arginine amino acid (referred to as an R-X peptide) and one peptide having an identical sequence except that the unmodified arginine was modified to be ADMA (referred to as an ADMA-X peptide).
substance,measurement,setting,value
"VCitFLEQQNK (V[Cit]FLEQQNK) [QP1073, citrullinated peptide fragment of vimentin]",Recognition of arginine / citrulline residue by PS1220,PS1220,did not recognize; also recorded: does not recognize
"RLK{acetyl}FIAYPDDD (RLK(Ac)FIAYPDDD-NH2; also: C-terminal azidolysine (general statement for all synthetic peptides)) [FAK{acetyl }, peptide containing acetylated lysine]","RS mean PD, recognition of N-terminal phenylalanine",PS610,1.8 s
same,"RS mean PD, recognition of N-terminal alanine",PS1165,2.2 s
RLpYFIAYPDDD,Recognition of Y or pY by PS610 between L and F,PS610,not recognized
same,"RS mean PD, recognition of N-terminal arginine",PS691,0.45 s
same,"RS mean PD, recognition of N-terminal leucine",PS961,3.4 s
"VRFLEQQNK [QP706, peptide fragment of vimentin]",Recognition of phenylalanine (F) residue by PS610,PS610; vimentin peptide fragments,recognized; also recorded: recognition
same,Recognition of arginine / citrulline residue by PS1220,PS1220,recognized; also recorded: recognition
same,Recognition of leucine (L) residue by PS1223,PS1223; vimentin peptide fragments,recognized; also recorded: recognition
LRLAFAYPDDDK [QP707],Median PD of recognition of N-terminal leucine by PS961,PS961; arginine or citrulline at position 2,0.43 s
same,RS R-X,PS621; RS duration,17.3 min
same,PW of R-X,PS621,0.47 s
same,Pulse Width,"PS1223; recognizer PS1223, recognition of the N-terminal amino acid",0.42 s
RLYFKAYPDDD (FAK) [peptide containing lysine],"RS mean PD, recognition of N-terminal phenylalanine",PS610,1.4 s
same,"RS mean PD, recognition of N-terminal alanine",PS1165,1.3 s
RLYFIAYPDDD,Recognition of Y or pY by PS610 between L and F,PS610,Y recognition
same,"RS mean PD, recognition of N-terminal arginine",PS691,0.9 s
same,"RS mean PD, recognition of N-terminal leucine",PS961,2.45 s
